Reference: patent publication US11285153B2, “Substituted pyrimidine piperazine compound and use thereof” (SUNSHINE LAKE PHARMA CO., LTD., priority 2017, dated 2022)

Columns and labels:
[1] = system: mice; test: Forced swimming test of mice, stationary time; format: in vivo, C57BL/6 mice; settings: for Stationary time: 3 mg/kg intraperitoneally 30 minutes before the test, last 4 minutes of 6 minutes, Mean ± SEM, vehicle 120.4 ± 16.5
Procedure: The effects of the compound of the invention on the stationary time in a forced swimming test of mice were evaluated in the present invention.
Animals (C57BL/6 mice) were fed in the animal house barrier system one week earlier to adapt to the rearing environment of animal house. Three days before the trial, each animal was touched 2-3 minutes/day. On the day of the experiment, the animals were transferred to the operating room 60 minutes in advance, and were randomly divided into a vehicle group (20% HP-β-CD+80% H2O), a 40 mg/kg dose group of hydrochloride of Desipramine as the standard reference compound, 1, 3, 10 mg/kg dose groups of the phosphate of the test compound, a 3 mg/kg dose group of the hydrochloride of Vilazone, and a 3 mg/kg dose group of hydrochloride of compound A, a total of 7 groups, the number of animals in each group was 15-16. The vehicle, the standard reference compound of Desipramine, the test compound, Vilazodone or Compound A were intraperitoneally injected 30 minutes before the test. The mice were placed in the experimental apparatus during the test. The experimental apparatus was a cylindrical organic transparent glass tank (23 cm high and 12 cm in diameter). The water level was 8 cm from the bottom and the water temperature was 22±2° C. The length of each test was 6 minutes. There was one animal in each sink, recorded by an Ethovision software and a double-blind manual counting analysis. The stationary time of the last 4 minutes of the animal was recorded. All the experimental results were expressed as mean ±standard error (Mean ±SEM). Prism 6.0 statistical software was used to test and analyze the results. The significance of the difference was P<0.05, and P<0.01 was very significant.

[2] = biological target: T1, humanized 5-HT transporter (SERT) (Homo sapiens, UniProt P31645); test: Affinity to humanized 5-HT transporter (SERT), [3H]imipramine binding, transfected CHO cell membranes; settings: 2 nM [3H]imipramine, 22° C., 60 minutes
T1 construct: expressed in transfected cells; host or cells: CHO cells, membrane homogenate
T1 sequence (P31645 whole entry): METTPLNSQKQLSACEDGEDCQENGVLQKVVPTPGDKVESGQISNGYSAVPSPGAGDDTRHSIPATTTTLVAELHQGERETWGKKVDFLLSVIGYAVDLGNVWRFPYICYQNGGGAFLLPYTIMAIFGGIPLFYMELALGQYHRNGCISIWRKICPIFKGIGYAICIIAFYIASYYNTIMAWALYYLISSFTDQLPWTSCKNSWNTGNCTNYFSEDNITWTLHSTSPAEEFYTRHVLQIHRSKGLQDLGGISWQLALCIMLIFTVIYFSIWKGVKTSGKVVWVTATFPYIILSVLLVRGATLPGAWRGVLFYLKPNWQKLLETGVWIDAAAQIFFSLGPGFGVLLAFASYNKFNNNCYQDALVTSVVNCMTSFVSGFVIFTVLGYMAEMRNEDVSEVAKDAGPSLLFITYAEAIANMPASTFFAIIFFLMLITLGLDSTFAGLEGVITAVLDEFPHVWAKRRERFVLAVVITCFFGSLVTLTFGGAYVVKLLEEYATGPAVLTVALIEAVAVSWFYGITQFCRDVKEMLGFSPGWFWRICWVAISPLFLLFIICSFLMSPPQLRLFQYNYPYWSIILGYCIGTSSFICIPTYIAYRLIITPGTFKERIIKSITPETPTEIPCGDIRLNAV
Procedure: Example A: Evaluation of the Affinity of the Compound of the Invention to Humanized 5-HT Transporter Transfected by CHQ Cells
To a mixture of cell membrane homogenate protein (12 μg), 2 nM [^3H] imipramine, buffer (50 mM Tris-HCl (pH 7.4), 120 mM NaCl, 5 mM KCl, and 0.1% BSA) was added test compound or not under a condition of 22° C. The reaction mixture was incubated for 60 minutes.
To the mixture of the above condition was added 10 μM imipramine to measure the non-specific binding value.
(§1) The incubated samples were quickly filtered through a glass fiber membrane (GF/B, Packard) impregnated with 0.3% PEI by a 96-well cell collector (Unifilter, Packard) under vacuum, and repeatedly rinsed with cold 50 mM Tris-HCl and 150 mM NaCl for several times. The filter was dried and the residual radioactivity was calculated in a scintillation counter (Topcount, Packard) by using scintillation fluid (Microscint 0, Packard). The experimental results were expressed as a percentage of inhibition of specific binding of radioligand to the control group.
The standard reference compound was imipramine. The competitive curve was obtained by a series of concentration experiments and the IC50 was calculated.

[3] = biological target: T2, 5-HT1A receptor (Homo sapiens, UniProt P08908); test: h5-HT1A binding affinity test, [3H]8-OH-DPAT, HEK-293 cell membranes; settings: 0.3 nM [3H]8-OH-DPAT, 22° C., 60 minutes; from IC50 by ChengPrusoff equation
T2 construct: host or cells: human HEK-293 cells, membrane homogenate
T2 sequence (P08908 1-422): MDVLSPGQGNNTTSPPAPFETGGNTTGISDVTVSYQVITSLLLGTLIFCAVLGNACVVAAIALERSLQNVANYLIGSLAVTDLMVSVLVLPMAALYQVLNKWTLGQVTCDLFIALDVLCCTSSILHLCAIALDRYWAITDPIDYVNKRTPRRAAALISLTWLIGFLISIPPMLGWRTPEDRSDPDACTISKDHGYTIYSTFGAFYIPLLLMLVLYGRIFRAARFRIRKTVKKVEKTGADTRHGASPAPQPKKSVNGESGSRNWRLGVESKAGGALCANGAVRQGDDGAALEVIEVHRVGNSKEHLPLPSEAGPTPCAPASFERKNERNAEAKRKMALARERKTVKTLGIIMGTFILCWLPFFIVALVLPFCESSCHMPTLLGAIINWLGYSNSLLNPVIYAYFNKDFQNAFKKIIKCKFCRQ
Procedure: Example B: h5-HT1A Binding Affinity Test
To a mixture of human HEK-293 cell membrane homogenate (36 μg protein), 0.3 nM [^3H]8-OH-DPAT (Perkin-Elmer) and buffer (50 mM Tris-HCl (pH 7.4), 10 mM MgSO4, 0.5 mM EDTA, 2 μg/ml aprotinine) was added test compound or not under a condition of 22° C. The reaction mixture was incubated for 60 minutes.
The standard reference compound was 8-OH-DPAT. To a mixture of the above condition was added 10 μM 8-OH-DPAT to measure the non-specific binding value. A competitive curve was obtained by testing the data of a series of concentrations of 8-OH-DPAT in different experiments.
as §1, with “Tris-HCl” for “Tris-HCl and 150 mM NaCl”
The binding assay of [^3H]8-OH-DPAT (0.3 nM) to the 5-HT1A receptor in human HEK-293 cells was performed by a scintillation proximity assay of the membrane. The test compound needed to be tested at least three times at a concentration exceeding 6 log, and the data was subjected to nonlinear regression analysis by a Hill equation curve to obtain an IC50 value, which was then calculated by the ChengPrusoff equation to obtain a Ki value.

[4] = Pharmacokinetic evaluation in rats after intravenous or intragastric administration; format: in vivo; settings: SD, rat, plasma
Procedure: Pharmacokinetics of the compound of the invention in rats, dogs and monkeys were studied and evaluated.
The compound was administered to the tested animals in the form of 5% DMSO+5% Kolliphor HS15+2% (2% HCl)+88% Saline saline solution or 10% DMSO+10% Kolliphor HS15+80% normal saline solution. For the intravenous administration group, the dose was 1 mg/kg, and then the venous blood (0.3 mL) was taken at a time of 0, 0.083, 0.25, 0.5, 1.0, 2.0, 5.0, 7.0, and 24 hours after administration, and centrifuged at 3,000 or 4,000 rpm for 10 minutes. The plasma solution was collected and stored at −20° C. or −70° C. For the intragastric administration group, the dose was 2.5 mg/kg, and then the venous blood (0.3 mL) was taken at a time of 0, 0.083, 0.25, 0.5, 1.0, 2.0, 5.0, 7.0, and 24 hours after administration, and centrifuged at 3,000 or 4,000 rpm for 10 minutes. The plasma solution was collected and stored at −20° C. or −70° C.
The plasma solutions obtained from each of the above groups were subjected to LC/MS/MS analysis.
The LC/MS/MS system for analysis included the Agilent 1200 Series vacuum degasser, binary pump, orifice autosampler, thermostatic column oven, and Agilent G6430A triple quadrupole mass spectrometer with electrospray ionization (ESI) source.
Analysis was performed using a waters XBridge C18 (2.1×50 mm) column. The column was 3.5 μM and injection volume was 5 μL. The analytical conditions were as follows: mobile phase A: water+2 mM ammonium formate+0.1% formic acid mobile phase B: methanol+2 mM ammonium formate+0.1% formic acid. The flow rate was 0.4 mL/min.

Compound: Cc1nc(-c2cnc(N3CCN(CCCc4c[nH]c5ccc(C#N)cc45)CC3)nc2)sc1C(N)=O [drawing 37]
- Stationary time [1]: 75.1 ± 13.3 s

Compound: N#Cc1ccc2[nH]cc(CCCCN3CCN(c4ccc5oc(C(N)=O)cc5c4)CC3)c2c1 [Vilazodone]
- Stationary time [1]: 107.8 ± 16.1 s
- Effect on stationary time compared with the vehicle group ([1]; forced swimming test, same dose (3 mg/kg)): slightly reduce the stationary time of mice, but there is no significant difference

Compound: CCOC(=O)c1sc(-c2cnc(N3CCN(CCCc4c[nH]c5ccc(C#N)cc45)CC3)nc2)nc1C [Example 10, ethyl 2-(2-(4-(3-(5-cyano-1H-indol-3-yl)propyl)piperazin-1-yl)pyrimidin-5-yl)-4-methylthiazole-5-formate]
- IC50 [2]: 130 pM
- Ki [3]: 2160 pM

Compound: N#Cc1ccc2[nH]cc(CCCCN3CCN(c4ncc(-c5ccc(C(N)=O)nc5)cn4)CC3)c2c1 [Example 3, 5-(2-(4-(4-(5-cyano-1H-indol-3-yl)butyl)piperazin-1-yl)pyrimidin-5-yl)pyridine-2-carboxamide]
- IC50 [2]: 790 pM
- Ki [3]: 2190 pM

Compound: N#Cc1ccc2[nH]cc(CCCN3CCN(c4ncc(-c5ccc(C(N)=O)nc5)cn4)CC3)c2c1 [Example 4, 5-(2-(4-(3-(5-cyano-1H-indol-3-yl)propyl)piperazin-1-yl)pyrimidin-5-yl)pyridine-2-carboxamide]
- IC50 [2]: 810 pM
- Ki [3]: 4130 pM

Compound: CCOC(=O)c1sc(-c2cnc(N3CCN(CCCCc4c[nH]c5ccc(C#N)cc45)CC3)nc2)nc1C [Example 9, ethyl 2-(2-(4-(4-(5-cyano-1H-indol-3-yl)butyl)piperazin-1-yl)pyrimidin-5-yl)-4-methylthiazole-5-formate]
- IC50 [2]: 450 pM
- Ki [3]: 990 pM

Compound: N#Cc1ccc2[nH]cc(CCCN3CCN(c4ncc(-c5cccc(C(N)=O)n5)cn4)CC3)c2c1 [Example 6, 6-(2-(4-(3-(5-cyano-1H-indol-3-yl)propyl)piperazin-1-yl)pyrimidin-5-yl)pyridine-2-carboxamide]
- IC50 [2]: 230 pM
- Ki [3]: 1100 pM

Compound: N#Cc1ccc2[nH]cc(CCCCN3CCN(c4ncc(-c5cccc(C(N)=O)n5)cn4)CC3)c2c1 [Example 5, 6-(2-(4-(4-(5-cyano-1H-indol-3-yl)butyl)piperazin-1-yl)pyrimidin-5-yl)pyridine-2-carboxamide]
- IC50 [2]: 660 pM
- Ki [3]: 530 pM

Compound: N#Cc1ccc2[nH]cc(CCCCN3CCN(c4ncc(-c5ccc(C(N)=O)cn5)cn4)CC3)c2c1 [Example 1, 6-(2-(4-(4-(5-cyano-1H-indol-3-yl)butyl)piperazin-1-yl)pyrimidin-5-yl)nicotinamide]
- IC50 [2]: 680 pM
- Ki [3]: 2130 pM

Compound: Cc1nc(-c2cnc(N3CCN(CCCc4c[nH]c5ccc(C#N)cc45)CC3)nc2)sc1C(N)=O [Example 8, 2-(2-(4-(3-(5-cyano-1H-indol-3-yl)propyl)piperazin-1-yl)pyrimidin-5-yl)-4-methylthiazole-5-formamide]
- AUC(0-inf) ([4]; iv, 1 mg/kg): 1820 ng·h/mL
- AUC(0-t) ([4]; iv, 1 mg/kg): 1740 ng·h/mL
- Cmax ([4]; iv, 1 mg/kg): 1000 ng/mL
- Tmax ([4]; iv, 1 mg/kg): 0.083 h
- clearance ([4]; iv, 1 mg/kg): 9.22 mL/min/kg
- half-life ([4]; iv, 1 mg/kg): 1.72 h
- Vd ([4]; iv, 1 mg/kg, read-out: Vss): 1.3 L/kg
- AUC(0-inf) ([4]; po, 2.5 mg/kg): 1550 ng·h/mL
- AUC(0-t) ([4]; po, 2.5 mg/kg): 1740 ng·h/mL
- Cmax ([4]; po, 2.5 mg/kg): 590 ng/mL
- Tmax ([4]; po, 2.5 mg/kg): 1 h
- bioavailability ([4]; po, 2.5 mg/kg): 39.8%
- half-life ([4]; po, 2.5 mg/kg): 1.58 h
- IC50 [2]: 330 pM
- Ki [3]: 2140 pM

Compound: N#Cc1ccc2[nH]cc(CCCN3CCN(c4ncc(-c5ccc(C(N)=O)cn5)cn4)CC3)c2c1 [Example 2, 6-(2-(4-(3-(5-cyano-1H-indol-3-yl)propyl)piperazin-1-yl)pyrimidin-5-yl)nicotinamide]
- IC50 [2]: 450 pM
- Ki [3]: 4310 pM

Compound: Cc1nc(-c2cnc(N3CCN(CCCCc4c[nH]c5ccc(C#N)cc45)CC3)nc2)sc1C(N)=O [Example 7, 2-(2-(4-(4-(5-cyano-1H-indol-3-yl)butyl)piperazin-1-yl)pyrimidin-5-yl)-4-methylthiazole-5-formamide]
- IC50 [2]: 770 pM
- Ki [3]: 1010 pM
